Data on two molecules can be found in ChEMBL document CHEMBL4613244, “Absolute Configuration and Corrected NMR Assignment of 17-Hydroxycyclooctatin, a Fused 5-8-5 Tricyclic Diterpene” (J Nat Prod, 2020).

Active and inactive are the calls of the source. The calls are words filed in the database; no cut-off is given here.

Holding throughout (type): functional, cell-based
Assay [1] deals with MCF7. The experiment in a line: Anti-estrogenic activity in human MCF7 cells assessed as reduction in 17beta-estradiol-induced cell viability at 100 nM after 24 hrs by MTT assay.
Assay [2] has as its system MCF7. Briefly: Antiproliferative activity against human MCF7 cells assessed as reduction in cell viability after 24 hrs by MTT assay. The note with it: MCF7, 24 h. In general terms: Formazan colour is commonly taken as a measure of viable cells.
Assay [3] concerns MCF7. Briefly: Anti-estrogenic activity in human MCF7 cells assessed as reduction in 17beta-estradiol-induced cell viability at 100 to 200 uM after 24 hrs by MTT assay.

One may read the IC50 as the concentration needed to halve the response being measured.

Regarding `C[C@]12CC[C@@H]3c4ccc(O)cc4C[C@@H](CCCCCCCCC[S+]([O-])CCCC(F)(F)C(F)(F)F)[C@H]3[C@@H]1CC[C@@H]2O` (stereo partly drawn), the outcome with MCF7 [1] was Active.
In the case of `C[C@H](CO)[C@H]1CC[C@]2(C)C[C@@H]3[C@H](CO)C[C@@H](O)[C@H]3[C@@](C)(O)C/C=C/12`, the half-maximal inhibitory concentration (IC50) in the assay on MCF7 [2] was 567 µM. For the same molecule, the outcome with MCF7 [3] was Active.
